From patent US20100144733A1, “Compounds, compositions and methods comprising heteroaromatic derivatives” (Institute for OneWorld Health, priority 2008, published 2010) come the findings set out here.

For orientation: IC50 means the midpoint of a concentration-inhibition curve.

T1 sequence (P13569 whole entry): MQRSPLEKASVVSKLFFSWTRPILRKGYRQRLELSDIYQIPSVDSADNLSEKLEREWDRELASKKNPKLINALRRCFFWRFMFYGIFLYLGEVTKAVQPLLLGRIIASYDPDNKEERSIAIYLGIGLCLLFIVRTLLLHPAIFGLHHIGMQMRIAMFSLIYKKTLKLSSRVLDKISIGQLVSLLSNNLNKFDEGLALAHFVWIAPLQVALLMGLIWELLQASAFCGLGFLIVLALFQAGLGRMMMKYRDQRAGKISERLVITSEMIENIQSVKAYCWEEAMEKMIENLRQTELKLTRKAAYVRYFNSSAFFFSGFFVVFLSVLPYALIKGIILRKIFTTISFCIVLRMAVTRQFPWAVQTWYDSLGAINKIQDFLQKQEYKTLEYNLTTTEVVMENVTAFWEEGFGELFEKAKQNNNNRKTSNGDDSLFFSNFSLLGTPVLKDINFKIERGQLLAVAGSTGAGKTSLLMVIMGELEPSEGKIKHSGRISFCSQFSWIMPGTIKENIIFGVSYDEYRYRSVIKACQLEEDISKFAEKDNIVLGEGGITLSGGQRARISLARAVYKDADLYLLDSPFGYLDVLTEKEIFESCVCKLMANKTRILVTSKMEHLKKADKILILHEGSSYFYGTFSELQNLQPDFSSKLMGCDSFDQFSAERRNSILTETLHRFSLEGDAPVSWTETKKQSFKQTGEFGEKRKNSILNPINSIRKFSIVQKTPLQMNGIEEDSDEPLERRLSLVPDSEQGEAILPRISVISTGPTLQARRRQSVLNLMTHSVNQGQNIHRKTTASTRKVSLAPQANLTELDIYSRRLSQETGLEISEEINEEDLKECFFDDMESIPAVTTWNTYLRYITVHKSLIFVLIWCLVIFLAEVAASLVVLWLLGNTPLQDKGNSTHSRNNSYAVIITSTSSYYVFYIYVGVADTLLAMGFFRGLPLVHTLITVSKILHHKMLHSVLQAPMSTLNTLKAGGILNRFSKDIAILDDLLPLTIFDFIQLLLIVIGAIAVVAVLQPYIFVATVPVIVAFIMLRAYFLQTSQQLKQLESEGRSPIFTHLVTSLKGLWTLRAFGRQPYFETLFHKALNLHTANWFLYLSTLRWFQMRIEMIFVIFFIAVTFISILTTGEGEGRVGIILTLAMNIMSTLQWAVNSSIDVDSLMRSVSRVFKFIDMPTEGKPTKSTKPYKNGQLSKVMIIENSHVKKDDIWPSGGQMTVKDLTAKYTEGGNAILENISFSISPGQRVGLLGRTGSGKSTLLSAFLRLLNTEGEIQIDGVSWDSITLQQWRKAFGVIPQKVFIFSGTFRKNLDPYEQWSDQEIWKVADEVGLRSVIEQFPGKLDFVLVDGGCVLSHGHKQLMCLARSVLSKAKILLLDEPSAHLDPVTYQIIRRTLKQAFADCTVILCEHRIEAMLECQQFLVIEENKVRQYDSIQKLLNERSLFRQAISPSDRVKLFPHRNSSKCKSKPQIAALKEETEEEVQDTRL

The first assay addresses T1, CFTR (Homo sapiens, UniProt P13569).
T1 construct: endogenous in cells; host or cells: T84 human colonic cells (ECACC)
In words: T84 assay (FLIPR membrane potential dye, forskolin/IBMX-stimulated CFTR channel activity). In kind it is cell-based. As to conditions: imidazole and triazole-containing compounds (Tables 13, 14, 14′), read-out: IC50 (μM) (T84 assay). The method, then: (§1) For example, Human colonic T84 cells can be acquired from the European Collection of Cell Cultures (ECACC) and grown in standard culture conditions as described by the supplier. On the day before assay 25,000 T84 cells per well are plated into standard black walled, clear bottom 384-well assay plates in standard growth medium consisting of DMEM:F12 with 10% FBS and incubated overnight. On the day of the assay the plates are washed using a standard assay buffer (HBSS with 10 mM Hepes) and incubated for 15 minutes in serum free cell culture medium before the addition of a commercially available membrane potential sensitive fluorescent dye (FLIPRRed membrane potential dye, Molecular Devices Corporation). T84 cells are incubated with the FLIPRRed membrane potential dye for 45 minutes in the presence and absence of test compound before being transferred to a commercially available fluorescence imaging plate reader (FLIPR384, Molecular Devices Corporation). Fluorescence levels are monitored continuously every second for 150 seconds; after an initial 10 second baseline, CFTR channel activity is stimulated through the addition of 10 μM forskolin in the presence of 100 μM of the phosphodiesterase inhibitor iso-butyl-methylxanthine (IBMX). Addition of the forskolin leads to the activation of intracellular adenylyl cylase 1, elevating cAMP levels and results in the phosphorylation and opening of CFTR anion channels. CFTR channel opening causes chloride ion efflux and subsequent depolarization of the cells, which is measured by an increase in fluorescence. CFTR inihibitor compounds prevent cell depolarization and the associatred increase in fluorescence.
as §1, with “Human colonic” for “For example, Human colonic”, “T84 cells are acquired from” for “T84 cells can be acquired from”, “(ECACC) and are grown in” for “(ECACC) and grown in”, “10 μM Forskolin in the” for “10 μM forskolin in the”, “fluorescence. CFTR inhibitor compounds prevent” for “fluorescence. CFTR inihibitor compounds prevent”, “and the associated increase in” for “and the associatred increase in”
Turning to `O=C(NCc1cccc(-n2cccn2)c1)c1ncn(-c2cc(Cl)c(O)c(Cl)c2)n1` [46i], the 50% inhibitory concentration (IC50) came to 28.6 µM.
On the same count and under the same terms, with `CON(Cc1ccc(C(C)C)cc1)C(=O)c1ncn(-c2cc(Cl)c(O)c(Cl)c2)n1` [128i, 1-(3,5-dichloro-4-hydroxyphenyl)-N-(4-isopropylbenzyl)-N-methoxy-1H-1,2,4-triazole-3-carboxamide] the figure was 2.19 µM; with `O=C(NCc1ccc(-c2ccc(C(F)(F)F)cn2)cc1)c1ncn(-c2cc(Cl)c(O)c(Cl)c2)n1` [39i, 1-(3,5-dichloro-4-hydroxyphenyl)-N-(4-(5-(trifluoromethyl)pyridin-2-yl)benzyl)-1H-1,2,4-triazole-3-carboxamide], 2.51 µM; with `CC(NC(=O)c1ncn(-c2cc(Cl)c(O)c(Cl)c2)n1)c1ccc(Br)cc1` (centres unmarked) [32i, N-(1-(4-bromophenyl)ethyl)-1-(3,5-dichloro-4-hydroxyphenyl)-1H-1,2,4-triazole-3-carboxamide], 10.3 µM.
Take `COCCOCCOCCOCCN(Cc1ccc(C(C)(C)C)cc1)C(=O)c1ncn(-c2cc(Cl)c(O)c(Cl)c2)n1` [120i, N-(4-tert-butylbenzyl)-1-(3,5-dichloro-4-hydroxyphenyl)-N-(2,5,8,11-tetraoxatridecan-13-yl)-1H-1,2,4-triazole-3-carboxamide]: the IC50 came to 5.9 µM.
Take `O=C(NCc1ccccc1Cl)c1ncn(-c2cc(Cl)c(O)c(Cl)c2)n1` [30i, N-(2-chlorobenzyl)-1-(3,5-dichloro-4-hydroxyphenyl)-1H-1,2,4-triazole-3-carboxamide]: the IC50 stood at 27.8 µM.
In the case of `CC(C)Oc1ccc(CNC(=O)c2ncn(-c3cc(Cl)c(O)c(Cl)c3)n2)cc1` [28i, 1-(3,5-dichloro-4-hydroxyphenyl)-N-(4-isopropoxybenzyl)-1H-1,2,4-triazole-3-carboxamide], the concentration for half-maximal inhibition (IC50) was 16.8 µM.
Turning to `COCCOCCOCCOCCOCCOCCOCCOCCON(Cc1ccc(Oc2ccccc2)cc1)C(=O)c1ncn(-c2cc(Cl)c(O)c(Cl)c2)n1` [121i, N-(2,5,8,11,14,17,20,23-octaoxapentacosan-25-yloxy)-1-(3,5-dichloro-4-hydroxyphenyl)-N-(4-phenoxybenzyl)-1H-1,2,4-triazole-3-carboxamide], the IC50 was found to be 12.5 µM.

The assay is the same for the next values; noted with them: oxadiazole-containing compounds (a series), average of at least 2 runs unless annotated n = 1, read-out: IC50.
In the case of `CC(C)(C)c1ccc(N2CCN(C(=O)c3nc(-c4cc(Br)c(O)c(Br)c4)no3)CC2)cc1` [25a, (4-(4-tert-butylphenyl)piperazin-1-yl)(3-(3,5-dibromo-4-hydroxyphenyl)-1,2,4-oxadiazol-5-y1)methanone], the IC50 stood at 10.9 µM.
`O=C(NCc1ccc(N2CCCCC2)cc1)c1nc(-c2cc(Cl)c(O)c(Cl)c2)no1` [166a, 3-(3,5-dichloro-4-hydroxyphenyl)-N-(4-(piperidin-1-yl)benzyl)-1,2,4-oxadiazole-5-carboxamide]: the 50% inhibitory concentration (IC50) came to 6.21 µM.
Still for that read-out and setting: with `O=C(c1nc(-c2cc(Br)c(O)c(Br)c2)no1)N1CCN(c2ccccc2)CC1` [16a, (3-(3,5-dibromo-4-hydroxyphenyl)-1,2,4-oxadiazol-5-yl)(4-phenylpiperazin-1-yl)methanone] the figure was 9.13 µM; with `CN(Cc1cccc(-c2ccncc2)c1)C(=O)c1nc(-c2cc(Cl)c(O)c(Cl)c2)no1` [175a, 3-(3,5-dichloro-4-hydroxyphenyl)-N-methyl-N-(3-(pyridin-4-yl)benzyl)-1,2,4-oxadiazole-5-carboxamide], 6.78 µM.
On to `CN(Cc1ccccc1)C(=O)c1nc(-c2cc(Br)c(O)c(Br)c2)no1` [28a, N-benzyl-3-(3,5-dibromo-4-hydroxyphenyl)-N-methyl-1,2,4-oxadiazole-5-carboxamide], for which the half-inhibitory concentration (IC50) was found to be 15.3 µM.
Still for that read-out and setting: for `O=C(NCc1cccc(OCc2ccccc2)c1)c1nc(-c2cc(Cl)c(O)c(Cl)c2)no1` [141a, N-(3-(benzyloxy)benzyl)-3-(3,5-dichloro-4-hydroxyphenyl)-1,2,4-oxadiazole-5-carboxamide] the value was 7.79 µM; for `CC(C)(C)ONC(=O)COc1c(Br)cc(-c2noc(C(=O)N3CCC(Cc4ccccc4)CC3)n2)cc1Br` [205a, 2-(4-(5-(4-benzylpiperidine-1-carbonyl)-1,2,4-oxadiazol-3-yl)-2,6-dibromophenoxy)-N-tert-butoxyacetamide], 23.1 µM; for `CCc1ccc(CN(C)C(=O)c2nc(-c3cc(Cl)c(O)c(Cl)c3)no2)cc1` [150a, 3-(3,5-dichloro-4-hydroxyphenyl)-N-(4-ethylbenzyl)-N-methyl-1,2,4-oxadiazole-5-carboxamide], 6.25 µM.
Still for that read-out and setting: with `CN(C)c1ccc(CNC(=O)c2noc(-c3cc(Cl)c(O)c(Cl)c3)n2)cc1` [158a, 5-(3,5-dichloro-4-hydroxyphenyl)-N-(4-(dimethylamino)benzyl)-1,2,4-oxadiazole-3-carboxamide] the figure was 17.5 µM; with `O=C(NCc1ccc(Oc2ccccc2)cc1)c1nc(-c2cc(Cl)c(O)c(Cl)c2)no1` [7a, 3-(3,5-dichloro-4-hydroxyphenyl)-N-(4-phenoxybenzyl)-1,2,4-oxadiazole-5-carboxamide], 5.22 µM; with `O=C(NCc1cccc(Cl)c1)c1noc(-c2cc(Cl)c(O)c(Cl)c2)n1` [86a, N-(3-chlorobenzyl)-5-(3,5-dichloro-4-hydroxyphenyl)-1,2,4-oxadiazole-3-carboxamide], 2.12 µM.
The same measure, in the same setting: with `COc1cc(Oc2ccc(CNC(=O)c3nc(-c4cc(Cl)c(O)c(Cl)c4)no3)cc2)ccc1F` [191a, 3-(3,5-dichloro-4-hydroxyphenyl)-N-(4-(4-fluoro-3-methoxyphenoxy)benzyl)-1,2,4-oxadiazole-5-carboxamide] the figure was 8.85 µM; with `CN(Cc1cccc(Oc2ccccc2)c1)C(=O)c1nc(-c2cc(Cl)c(O)c(Cl)c2)no1` [144a, 3-(3,5-dichloro-4-hydroxyphenyl)-N-methyl-N-(3-phenoxybenzyl)-1,2,4-oxadiazole-5-carboxamide], 6.33 µM; with `O=C(NCc1ccc(Oc2cccc(F)c2)cc1)c1nc(-c2cc(Cl)c(O)c(Cl)c2)no1` [194a, 3-(3,5-dichloro-4-hydroxyphenyl)-N-(4-(3-fluorophenoxy)benzyl)-1,2,4-oxadiazole-5-carboxamide], 10 µM.
In the case of `O=C(NCc1ccc(Cl)cc1)c1nc(-c2cc(Cl)c(O)c(Cl)c2)no1` [128a, N-(4-chlorobenzyl)-3-(3,5-dichloro-4-hydroxyphenyl)-1,2,4-oxadiazole-5-carboxamide], the IC50 was determined as 12.8 µM.
In the case of `O=C(c1nc(-c2cc(Cl)c(O)c(Cl)c2)no1)N(Cc1cccnc1)Cc1cccnc1` [162a, 3-(3,5-dichloro-4-hydroxyphenyl)-N,N-bis(pyridin-3-ylmethyl)-1,2,4-oxadiazole-5-carboxamide], the IC50 stood at 9.24 µM.
Regarding `O=C(NCc1ccc(OCc2ccccc2)cc1)c1nc(-c2cc(Cl)c(O)c(Cl)c2)no1` [153a, N-(4-(benzyloxy)benzyl)-3-(3,5-dichloro-4-hydroxyphenyl)-1,2,4-oxadiazole-5-carboxamide], the half-maximal inhibitory concentration (IC50) turned out to be 2.99 µM.
As to `CC(C)(C)C(=O)CN(Cc1ccccc1)C(=O)c1nc(-c2cc(Cl)c(O)c(Cl)c2)no1` [151a, N-benzyl-3-(3,5-dichloro-4-hydroxyphenyl)-N-(3,3-dimethyl-2-oxobutyl)-1,2,4-oxadiazole-5-carboxamide], the IC50 stood at 6.24 µM.

Still in this assay, the particulars now being: thiadiazole-containing compounds (Table 12), read-out: IC50.
On to `Oc1c(Cl)cc(-c2nnc(CN3c4ccccc4Sc4ccccc43)s2)cc1Cl` [3h, 4-(5-((10H-Phenothiazin-10-yl)methyl)-1,3,4-thiadiazol-2-yl)-2,6-dichlorophenol], for which the concentration for half-maximal inhibition (IC50) came out at 6.57 µM.

The assay is the same for the next values; noted with them: triazine-containing compounds (Table 8 and 8′), read-out: IC50.
For the compound `N#Cc1ccc(COc2ncc(-c3cc(Br)c(O)c(Br)c3)nn2)cc1` [101e, 4-((6-(3,5-dibromo-4-hydroxyphenyl)-1,2,4-triazin-3-yloxy)methyl)benzonitrile], the half-maximal inhibitory concentration (IC50) came out at 3.49 µM.

Staying with this assay, now noted: triazole-containing compounds (c series), average of at least 2 runs unless annotated n = 1, read-out: IC50.
For the compound `CN(Cc1cccc(C(F)(F)F)c1)C(=O)c1n[nH]c(-c2cc(Cl)c(O)c(Cl)c2)n1` [90c, 5-(3,5-dichloro-4-hydroxyphenyl)-N-methyl-N-(3-(trifluoromethyl)benzyl)-1H-1,2,4-triazole-3-carboxamide], the IC50 turned out to be 24.1 µM.
